Some test systems named below: NCI-H460 lung; A498 renal; HS 578T breast; OVCAR-5 ovarian; A549 NSCLC; TK-10 renal; SK-MEL-28 melanoma; NCI/ADR-RES ovarian; HCT-116 colon; CCRF-CEM leukemia; SF-539 CNS; IGROV1 ovarian; UO-31 renal; HCC-2998 colon; SN12C renal; M14 melanoma; PC-3 prostate; U251 CNS; CAKI-1 renal; MOLT-4 leukemia.
What all share (assay): NCI-60 cell line screen, 48 h

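Interpolation was linear, between the two tested concentrations surrounding the appropriate level; five concentrations were tested over 48 hours in 96-well plates. At the TGI there is no net growth.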 Where a SMILES comes first, the peptide text is derived from it. [ ]: non-standard residue; d: D form. The star is where a group is joined. Phe(4-NO2) = N[CH](Cc1ccc([N+](=O)[O-])cc1)C(=O)O; Boc = CC(C)(C)OC(=O)*

Take `Cc1ccc(S(=O)(=O)Oc2nc3nc4ccccc4nc3nc2OS(=O)(=O)c2ccc(C)cc2)cc1`: the TGI with NCI-H460 lung, in the assay with A498 renal, in the assay on HS 578T breast, in the assay with OVCAR-5 ovarian, in the assay with A549 NSCLC and with TK-10 renal was above 100 µM throughout. The TGI in the assay on SK-MEL-28 melanoma, with NCI/ADR-RES ovarian, in the assay with HCT-116 colon, with CCRF-CEM leukemia, in the assay on SF-539 CNS and in the assay on IGROV1 ovarian was above 100 µM each time. In addition, the TGI with UO-31 renal, in the assay with HCC-2998 colon, in the assay on SN12C renal, with M14 melanoma, with PC-3 prostate and in the assay with U251 CNS was above 100 µM throughout. Moreover, the TGI in the assay with CAKI-1 renal is above 100 µM.
Take `COC(=O)N/N=C(\c1ccccc1)c1ccc(OC)cc1`: the TGI in the assay with NCI-H460 lung, in the assay on A498 renal, with HS 578T breast, in the assay with OVCAR-5 ovarian, in the assay with A549 NSCLC and with TK-10 renal was above 100 µM in each case. In addition, the TGI in the assay with SK-MEL-28 melanoma, with NCI/ADR-RES ovarian, with HCT-116 colon, with CCRF-CEM leukemia, in the assay with SF-539 CNS and in the assay with IGROV1 ovarian was above 100 µM in each case. The TGI with UO-31 renal, in the assay with HCC-2998 colon, with MOLT-4 leukemia, with SN12C renal, in the assay on M14 melanoma and with PC-3 prostate was above 100 µM throughout. The TGI in the assay with U251 CNS and in the assay on CAKI-1 renal was above 100 µM each time.
For the molecule `O=C1CSC(c2ccccc2O)N1c1nc2cc3sc(N4C(=O)CSC4c4ccccc4O)nc3cc2s1` (configuration not stated), the TGI with NCI-H460 lung is above 33.6 µM; in the assay with A498 renal it was above 100 µM; with HS 578T breast, above 100 µM; in the assay with OVCAR-5 ovarian, above 100 µM; with A549 NSCLC it was above 100 µM; in the assay on TK-10 renal, above 100 µM. Besides, the TGI with SK-MEL-28 melanoma, with NCI/ADR-RES ovarian, with HCT-116 colon, in the assay with CCRF-CEM leukemia, in the assay with SF-539 CNS and with IGROV1 ovarian was above 100 µM in each case. For the same molecule, the TGI in the assay on UO-31 renal, in the assay on HCC-2998 colon, in the assay on MOLT-4 leukemia, in the assay on SN12C renal, in the assay with M14 melanoma and in the assay on PC-3 prostate was above 100 µM throughout. The TGI with U251 CNS and in the assay on CAKI-1 renal was above 100 µM each time.
Take `CC1OC(OCC2OC(Oc3ccc(C4CC(=O)c5c(O)cc(O)cc5O4)cc3O)C(O)C(O)C2O)C(O)C(O)C1O` (configuration not stated): the TGI with NCI-H460 lung, in the assay with A498 renal, in the assay with HS 578T breast, in the assay with OVCAR-5 ovarian, with A549 NSCLC and with TK-10 renal was above 100 µM in each case. The TGI in the assay with SK-MEL-28 melanoma, in the assay with NCI/ADR-RES ovarian, in the assay with HCT-116 colon, with CCRF-CEM leukemia, in the assay with SF-539 CNS and in the assay with IGROV1 ovarian was above 100 µM throughout. The TGI with UO-31 renal, in the assay with HCC-2998 colon, with MOLT-4 leukemia, in the assay with SN12C renal, in the assay on M14 melanoma and with PC-3 prostate was above 100 µM in each case. Besides, the TGI in the assay on U251 CNS and in the assay on CAKI-1 renal was above 100 µM each time.
On to `COC(=O)CCC(NC(=O)OC(C)(C)C)C(=O)NC(Cc1ccc([N+](=O)[O-])cc1)C(=O)NC(CCC(=O)OC)C(=O)OC` (configuration not stated) (Boc-Glu(OMe)-[Phe(4-NO2)]-Glu(OMe)-OMe; configuration not given here), for which the TGI with NCI-H460 lung, with A498 renal, in the assay on HS 578T breast, with OVCAR-5 ovarian, in the assay on A549 NSCLC and with TK-10 renal was above 100 µM each time. The TGI was above 100 µM in the assay on SK-MEL-28 melanoma; above 100 µM with NCI/ADR-RES ovarian; above 100 µM in the assay with HCT-116 colon; 36.8 µM in the assay on CCRF-CEM leukemia; above 100 µM in the assay on SF-539 CNS; above 100 µM in the assay on IGROV1 ovarian. For the same molecule, the TGI was above 100 µM in the assay on UO-31 renal; above 100 µM in the assay with HCC-2998 colon; 49.9 µM with MOLT-4 leukemia; above 100 µM in the assay with SN12C renal; above 100 µM in the assay with M14 melanoma; above 100 µM in the assay with PC-3 prostate. Also, the TGI with CAKI-1 renal is above 100 µM.
With `O=C1N(CN2CCOCC2)CN(CN2CCOCC2)C(=O)N1Cc1ccc(CN2C(=O)N(CN3CCOCC3)CN(CN3CCOCC3)C2=O)cc1`, the TGI in the assay on NCI-H460 lung, in the assay with A498 renal, in the assay on HS 578T breast, in the assay with OVCAR-5 ovarian, with A549 NSCLC and in the assay on TK-10 renal was above 100 µM throughout. Further, the TGI with SK-MEL-28 melanoma, with NCI/ADR-RES ovarian, with HCT-116 colon, in the assay with CCRF-CEM leukemia, in the assay with SF-539 CNS and in the assay with IGROV1 ovarian was above 100 µM throughout. For the same molecule, the TGI in the assay on UO-31 renal, with HCC-2998 colon, in the assay with MOLT-4 leukemia, with SN12C renal, in the assay with M14 melanoma and in the assay with PC-3 prostate was above 100 µM throughout. Further, the TGI in the assay on U251 CNS and in the assay on CAKI-1 renal was above 100 µM throughout.
As for `COc1ccc(/C=C2\N=C(c3ccccc3)OC2=O)cc1OC(C)=O`, the TGI in the assay with NCI-H460 lung, in the assay with A498 renal, in the assay with HS 578T breast, in the assay with OVCAR-5 ovarian, in the assay with A549 NSCLC and with TK-10 renal was above 100 µM in each case. For the same molecule, the TGI is above 100 µM with SK-MEL-28 melanoma; above 100 µM in the assay on NCI/ADR-RES ovarian; above 100 µM with HCT-116 colon; 74.4 µM in the assay on CCRF-CEM leukemia; above 100 µM with SF-539 CNS; above 100 µM with IGROV1 ovarian. The TGI in the assay with UO-31 renal was above 100 µM; in the assay on HCC-2998 colon, above 100 µM; in the assay on MOLT-4 leukemia, 26.1 µM; in the assay on SN12C renal it was above 100 µM; in the assay on M14 melanoma, above 100 µM; in the assay with PC-3 prostate, above 100 µM. For the same molecule, in the assay on U251 CNS, the TGI is above 100 µM.
